From patent US12115178B2, “Acylated active agents and methods of their use for the treatment of autoimmune disorders” (Flagship Pioneering Innovations V, Inc., priority 2018, dated 2024)

Tests used:
DSS Colitis = assay: In vivo DSS colitis; design: species or system Swiss Webster mice; conditions: 100 mg/kg once a day oral gavage, study day 0 through 7, compared to the vehicle control
Excerpt: Specific pathogen-free female Swiss Webster mice, 6-8 weeks old, weighing 16-20 g were obtained from Harlan. Mice were randomized into treatment groups (n=10) based on body weight on study day −2. From study day 0 through 5, all groups were given 3% dextran sulfate sodium (DSS, Spectrum, Lot #2DC0020) in drinking water. On study day 5 through, drinking water was switched to water without DSS until the study end on day 7. From study day 0 through 7, the negative control (vehicle), positive control (cyclosporine A), and the treatment groups were given vehicle (1% Methylcellulose (Sigma, 400 cP)), cyclosporine A (70 mg/kg), and compound 44 (100 mg/kg) once a day until study day 7 via oral gavage. On study day 7, animals were anesthetized with Isoflurane and bled to exsanguination followed by cervical dislocation. The entire colon was removed and the overall efficacy of compound 44 was assessed based on colon histopathology. […] Statistical analysis was performed with GraphPad Prism (GraphPad Software). Mann-Whitney U test was used to assess significance between the vehicle control and each treatment group.

[1] = tested on: adoptive T-cell transfer mice; assay: Adoptive T-cell transfer study; assay type: in vivo, CB-17 SCID mice; conditions: compound 44 100 mg/kg, olsalazine 30 mg/kg, through day 42, compared to the vehicle control
Excerpt: On study day 0, naïve T-cells were obtained from the spleen of 11 to 12 week-old Balb/C mice using the SCID Cell Separation Protocol with the following labelling scheme; CD4+CD45RB^highCD25− and CD4+CD45RB^lowCD25+ cell (APC CD4 Antibody (100412), FITC CD45RB Antibody (103306), PE CD25 Antibody (101904), from BioLegend, San Diego, CA, and CD4 cell enrichment kit: 19752A, Stemcell Technologies, Cambridge, MA) and the 4×10^5 of CD4^+CD45RB^highCD25− cells were transferred 6-7 weeks old CB-17 SCID mice. Recipient mice were randomized based on their body weight (n=12 mice/group), and received […] of vehicle (0.5% methyl-cellulose) (vehicle control), 0.5 mg per mouse of anti-IL-12 (positive control), 30 mg/kg of olsalazine (positive treatment group), and 100 mg/kg of compound 44 (compound treatment group) through day 42. On day 42, animals were anesthetized with Isoflurane and bled to exsanguination followed by cervical dislocation. The entire colon was removed and the overall efficacy of compound 44 was assessed based on colon length and weight per length. […] Statistical analysis was performed with GraphPad Prism (GraphPad Software). Mann-Whitney U test was used to assess significance between the vehicle control and each treatment group.

[2] = Detection of mesalamine and compound 44 in feces after dosing with compound 44; assay type: in vivo, Swiss Webster mice; conditions: detected after dosing with Compound 44, oral gavage 10 mg/mL suspension at 10 mL/kg, mice
Method: Samples were frozen and stored at −70° C. until analysis. Quantification of mesalamine and compound 44 were done via bioanalysis using LC-MS/MS.

[3] = Detection of compound 44 in whole blood after dosing with compound 44; assay type: in vivo, Swiss Webster mice; conditions: detected after dosing with Compound 44, oral gavage 10 mg/mL suspension at 10 mL/kg, mice
Method: Whole blood (125 uL) was collected submandibular and transferred to chilled K2EDTA tubes pre-filled with 125 uL of acetonitrile and frozen at −70° C. until analysis. Mice (1-3) were sampled at 5 min, 1 hr, and 8 hr. Mice (4-6) were sampled at 15 min, 2 hours and 24 hours. Mice (7-9) were sampled at 30 min and 4 hrs. Quantification of compound 44 was done via bioanalysis using LC-MS/MS.

[4] = Assay 1. Stability in Simulated Gastric Fluid (SGF); assay type: in vitro ADME; conditions: SGF pH 1.6 with pepsin, 1 μM, 37° C.
Summary of the method: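 Degradation rate from LC/MS of acetonitrile-quenched aliquots (T0, then regular intervals). Fresh SGF (pH 1.6 NaCl, FaSSIF powder, pepsin 0.1 mg/mL) held compound at 1 μM final, 37° C; 1 mM DMSO stock.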

[5] = Assay 2. Stability in Simulated Intestinal Fluid (SIF); assay type: in vitro ADME; conditions: SIF pH 6.7 with pancreatin, 1 μM, 37° C.
Summary of the method: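 Degradation rates came from LC/MS of acetonitrile-quenched samples drawn at intervals, starting at T0. The medium was freshly made pH 6.7 FaSSIF containing pancreatin, and test compound was present at 1 µM while being shaken at 37 °C.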

CD4+CD25+ Treg cells = assay: In vivo induction of CD4+CD25+ Treg cells in high-fat diet fed mice; conditions: C57BL/6 mice on high-fat diet, 6% in diet ad libitum; compared to EGCG, acetate, or their combination
Excerpt: Acylated active agents disclosed herein may be useful in modulating autoimmunity markers and for treating autoimmune disorders.

| Concentration, uM (compound 44) [2] | Concentration, uM (compound 44) [3] | Compound | mucosal thickness (colon histopathology, FIG. 2) (DSS Colitis) | colon length (FIG. 3A) [1] | colon weight per length (FIG. 3B) [1] | Assay 1 (SGF) (% Remaining @ 1 hour) [4] | Assay 2 (SIF) (% @ Remaining 4 hours) [5] | CD4+CD25+ Treg cells (CD4+CD25+ cell counts as a percentage of all CD4+ T cells, FIG. 1) (CD4+CD25+ Treg cells) |
| --- | --- | --- | --- | --- | --- | --- | --- | --- |
| 10.72 µM | 0.68 µM | CCCC(=O)O[C@H]1[C@H](OC(=O)CCC)COC(Oc2ccc(N)cc2C(=O)O)[C@@H]1OC(=O)CCC.Cl (stereo in doubt) [Compound 44, 5-amino-2-(((2S,3R,4S,5R)-3,4,5-tris(butyryloxy)tetrahydro-2H-pyran-2-yl)oxy)benzoic acid hydrochloride] | significant reduction in mucosal thickness | significant increased | reduced |  |  |  |
|  |  | CC(=O)Oc1cc(OC(C)=O)c2c(c1)O[C@H](c1cc(OC(C)=O)c(OC(C)=O)c(OC(C)=O)c1)[C@H](OC(=O)c1cc(OC(C)=O)c(OC(C)=O)c(OC(C)=O)c1)C2 [Compound 2, [(2R,3R)-5,7-diacetoxy-2-(3,4,5-triacetoxyphenyl)chroman-3-yl] 3,4,5-triacetoxybenzoate] |  |  |  | C (>75% of the tested compound remaining) | A (<25% of the tested compound remaining) | induce CD4^+CD25^+ Treg cells |
